Data taken from patent US7504391B2, “Selective D1/D5 receptor antagonists for the treatment of obesity and CNS disorders” (Schering Corporation, priority 2003, dated 2009).
pKi: −log10 of the molar value.

These compounds were tested against T1, human D1 receptors (Homo sapiens, UniProt P21728) (assay: Radioligand binding competition assay at D1 receptor). Conditions: not given.
T1 construct: expressed in transfected cells; host or cells: Ltk- cells (mouse fibroblasts); membrane preparation
T1 sequence (P21728 whole entry): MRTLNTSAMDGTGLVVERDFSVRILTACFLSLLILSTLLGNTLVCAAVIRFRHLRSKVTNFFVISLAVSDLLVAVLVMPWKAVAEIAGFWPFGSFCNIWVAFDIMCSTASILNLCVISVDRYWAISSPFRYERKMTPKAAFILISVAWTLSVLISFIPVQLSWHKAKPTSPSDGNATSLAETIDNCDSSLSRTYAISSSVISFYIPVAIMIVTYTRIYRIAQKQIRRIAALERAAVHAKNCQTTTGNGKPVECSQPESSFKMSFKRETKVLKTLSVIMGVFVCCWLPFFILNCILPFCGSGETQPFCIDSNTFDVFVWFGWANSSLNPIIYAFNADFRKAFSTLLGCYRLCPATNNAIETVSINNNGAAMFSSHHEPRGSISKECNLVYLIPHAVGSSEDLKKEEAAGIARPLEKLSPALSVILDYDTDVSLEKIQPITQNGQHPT
Protocol: (§1) Affinity values (Ki) of compounds at human D1 and D2 receptors were ascertained using radioligand binding competition assays. Ltk-cells expressing D1 and D2 (long variant) receptors were lysed in hypotonic buffer for membrane preparation. Membranes were incubated with various concentrations of test compound and 1 nM [3H] of a compound of formula III and 0.2 nM [3H] Methylspiperone for D1 and D2 assays, respectively. Non-specific binding was defined as binding in the presence of 10 micromolar of a compound of formula III for D1 assays and 10 micromolar butaclamol for […]. Following incubation to equilibrium (1 hour at room temperature), bound radioligand was separated from free by rapid filtration. Bound radioactivity on the dried filters was quantified by liquid scintillation counting.
(§2) Selectivity is determined by dividing Ki for D2 receptor by Ki for D1 receptor.
Compound `CN1CCc2cc(Cl)c(O)cc2[C@H]2c3ccc(NCC4CCCC4)cc3CC[C@@H]21` [21a2] has a pKi greater than 8.30. `CN1CCc2cc(Cl)c(O)cc2[C@H]2c3cccc(NS(=O)(=O)c4ccc(F)cc4)c3CC[C@@H]21` [19a6] showed a pKi greater than 8.00. Work on `CCCS(=O)(=O)Nc1ccc2c(c1)CC[C@H]1[C@H]2c2cc(O)c(Cl)cc2CCN1C` [19b23] yielded a pKi greater than 8.30. Work on `CN1CCc2cc(Cl)c(O)cc2[C@H]2c3cccc(NC(=O)Nc4cc(Cl)nc(Cl)c4)c3CC[C@@H]21` [20a33] yielded a pKi of 7.30 to 8.00. In the case of `CC(=O)Nc1ccc2c(c1)CC[C@H]1[C@H]2c2cc(O)c(Cl)cc2CCN1C` [18a4], the pKi was greater than 8.00. Work on `CCS(=O)(=O)Nc1ccc2c(c1)CC[C@H]1[C@H]2c2cc(O)c(Cl)cc2CCN1C` [19b5] yielded a pKi greater than 8.30. `CN1CCc2cc(Cl)c(O)cc2[C@H]2c3ccc(NC(=O)CC4CC4)cc3CC[C@@H]21` [18a8] was tested, and the pKi was greater than 8.00. For `CN1CCc2cc(Cl)c(O)cc2[C@H]2c3ccc(NS(=O)(=O)c4cccc(C#N)c4)cc3CC[C@@H]21` [19b24], the pKi was greater than 8.00. For `CN1CCc2cc(Cl)c(O)cc2[C@H]2c3ccc(NS(=O)(=O)N(C)C)cc3CC[C@@H]21` [19b32], the pKi was greater than 8.30. For `CN1CCc2cc(Cl)c(O)cc2[C@H]2c3cc(S(=O)(=O)NCc4ccccc4)ccc3CC[C@@H]21` [15l], the pKi was 7.30 to 8.00. For `COc1ccc(OC(=O)Nc2ccc3c(c2)CC[C@H]2[C@H]3c3cc(O)c(Cl)cc3CCN2C)cc1` [24a3], the pKi was greater than 8.30. `CN1CCc2cc(Cl)c(O)cc2[C@H]2c3ccc(NC(=O)Nc4c(Cl)cccc4Cl)cc3CC[C@@H]21` [20b30] showed a pKi greater than 8.30. For `CN1CCc2cc(Cl)c(O)cc2[C@H]2c3ccc(NC(=O)C4CCCC4)cc3CC[C@@H]21` [18a6], the pKi was greater than 8.30. Compound `CN1CCc2cc(Cl)c(O)cc2[C@H]2c3ccc(NC(=O)Nc4ccccc4Cl)cc3CC[C@@H]21` [20b5] has a pKi greater than 8.00. `COc1ccc(OC(=O)Nc2cccc3c2CC[C@H]2[C@H]3c3cc(O)c(Cl)cc3CCN2C)cc1` [24b2] gave a pKi greater than 8.30. `CN(C)C(=O)Nc1cccc2c1CC[C@H]1[C@H]2c2cc(O)c(Cl)cc2CCN1C` [20a8] showed a pKi greater than 8.30. Work on `CCNC(=O)Nc1ccc2c(c1)CC[C@H]1[C@H]2c2cc(O)c(Cl)cc2CCN1C` [20b6] yielded a pKi greater than 8.30. `CN1CCc2cc(Cl)c(O)cc2[C@H]2c3ccc(NS(=O)(=O)Cc4ccccc4)cc3CC[C@@H]21` [19b31] was tested, and the pKi was greater than 8.30. `CN1CCc2cc(Cl)c(O)cc2[C@H]2c3cccc(NC(=O)c4cccc5ccccc45)c3CC[C@@H]21` [18b15] showed a pKi of 7.30 to 8.00. For `CN1CCc2cc(Cl)c(O)cc2[C@H]2c3cccc(NC(=O)N4CCCC4)c3CC[C@@H]21` [20a7], the pKi was greater than 8.30.

Same assay, conditions: class by Ki (D1) and selectivity (Ki D2 / Ki D1); human D1 and D2 (long variant) receptors, Ltk- cell membranes; read-out: D1 binding and D2:D1 Selectivity
Compound `CC(=O)N(Cc1cccc2c1CC[C@H]1[C@H]2c2cc(O)c(Cl)cc2CCN1C)c1ccccc1` [6a6] has a pKi of 7.30 to 8.00. In the case of `CN1CCc2cc(Cl)c(O)cc2C2c3cccc(C(=O)N4CCN(c5ccccn5)CC4)c3CCC21` (stereo not drawn) [13a2], the pKi was greater than 8.00. `CN1CCc2cc(Cl)c(O)cc2[C@H]2c3cc(CNc4cccnc4)ccc3CC[C@@H]21` [5b46] was tested, and the pKi was greater than 7.00. Compound `COC(=O)Nc1ccc2c(c1)CC[C@H]1[C@H]2c2cc(O)c(Cl)cc2CCN1C` [24a1] has a pKi greater than 8.30. In the case of `CN1CCc2cc(Cl)c(O)cc2[C@H]2c3ccc(NC(=O)C4CC4)cc3CC[C@@H]21` [18a1], the pKi was greater than 8.30. `CS(=O)(=O)Nc1ccc2c(c1)CC[C@@H]1NCCc3cc(Cl)c(O)cc3[C@@H]21` [30a] showed a pKi greater than 8.00. For `CN(C)C(=O)c1cccc2c1CCC1C2c2cc(O)c(Cl)cc2CCN1C` (stereo not drawn) [13a12], the pKi was greater than 8.00. For `CN(C)Cc1cccc2c1CC[C@H]1[C@H]2c2cc(O)c(Cl)cc2CCN1C` [5a50], the pKi was greater than 8.30. In the case of `Oc1cc2c(cc1Cl)CCN[C@H]1CCc3c(-c4ccncc4)cccc3[C@H]21` [29c], the pKi was greater than 8.30. `CN1CCc2cc(Cl)c(O)cc2[C@H]2c3ccc(N(C)S(C)(=O)=O)cc3CC[C@@H]21` [compound 23] showed a pKi greater than 8.30. In the case of `CC(=O)N(Cc1ccc(C2CN(C)CCc3cc(Cl)c(O)cc32)cc1)C1CCC1` (stereo not drawn) [6c26], the pKi was greater than 8.30. `CNC(=O)c1cccc2c1CCC1C2c2cc(O)c(Cl)cc2CCN1C` (stereo not drawn) [13a24] showed a pKi greater than 8.30. For `CN1CCc2cc(Cl)c(O)cc2[C@H]2c3ccc(NCc4ccccc4)cc3CC[C@@H]21` [21a1], the pKi was greater than 8.30. With `CC(=O)N(Cc1ccc([C@H]2CNCCc3cc(Cl)c(O)cc32)cc1)C1CCC1` [34a2] the pKi was greater than 8.00. For `CCCN(Cc1ccc(C2CN(C)CCc3cc(Cl)c(O)cc32)cc1)C(=O)Nc1ccccc1` (stereo not drawn) [8c33], the pKi was greater than 8.00. Compound `CN1CCc2cc(Cl)c(O)cc2[C@H]2c3cccc(CNC(c4ccccc4)c4ccccc4)c3CC[C@@H]21` [5a14] has a pKi greater than 8.00. Work on `CN1CCc2cc(Cl)c(O)cc2[C@H]2c3cc(CN(Cc4ccccc4)S(C)(=O)=O)ccc3CC[C@@H]21` [7b7] yielded a pKi greater than 7.00. `CC(C)NC(=O)N(Cc1ccc2c(c1)[C@@H]1c3cc(O)c(Cl)cc3CCN(C)[C@H]1CC2)c1ccccc1` [8b11] was tested, and the pKi was greater than 7.00. With `CC(=O)N(CCCCc1ccccc1)c1ccc2c(c1)[C@@H]1c3cc(O)c(Cl)cc3CCN(C)[C@H]1CC2` [22b1] the pKi was 7.30 to 8.00. Work on `CN1CCc2cc(Cl)c(O)cc2C2c3cccc(C(=O)NCc4ccccn4)c3CCC21` (stereo not drawn) [13a14] yielded a pKi greater than 8.00. Compound `CN1CCc2cc(Cl)c(O)cc2C2c3cccc(C(=O)NCCc4ccccc4)c3CCC21` (stereo not drawn) [13a7] has a pKi greater than 8.30. For `CC(NC(=O)c1ccc(C2CN(C)CCc3cc(Cl)c(O)cc32)cc1)c1ccccc1` (stereo not drawn) [13d1], the pKi was 7.30 to 8.00. `CN1CCc2cc(Cl)c(O)cc2C2c3cccc(C(=O)NCCc4ccccn4)c3CCC21` (stereo not drawn) [13a20] was tested, and the pKi was greater than 8.00. `C[C@@H](NCc1ccc(C2CN(C)CCc3cc(Cl)c(O)cc32)cc1)C1CCCCC1` (stereo partly drawn) [5c16] was tested, and the pKi was greater than 8.30. For `CN1CCc2cc(Cl)c(O)cc2[C@H]2c3ccc(NS(C)(=O)=O)cc3CC[C@@H]21` [19b1], the pKi was greater than 8.30. `CN1CCc2cc(Cl)c(O)cc2[C@H]2c3cccc(-c4ncc[nH]4)c3CC[C@@H]21` [25c] showed a pKi greater than 8.30. Work on `CC(=O)N(CC1CCCC1)c1ccc2c(c1)CC[C@H]1[C@H]2c2cc(O)c(Cl)cc2CCN1C` [22a2] yielded a pKi of 7.30 to 8.00. Compound `CN1CCc2cc(Cl)c(O)cc2[C@H]2c3cc(CN(Cc4ccccc4)C(=O)c4ccccc4)ccc3CC[C@@H]21` [6b1] has a pKi of 7.30 to 8.00. `CCNC(=O)N(Cc1ccc(F)cc1)Cc1cccc2c1CC[C@H]1[C@H]2c2cc(O)c(Cl)cc2CCN1C` [8a3] gave a pKi of 7.30 to 8.00. For `CN1CCc2cc(Cl)c(O)cc2C2c3cccc(C(=O)NCc4ccccc4)c3CCC21` (stereo not drawn) [13a21], the pKi was greater than 8.00. `CN1CCc2cc(Cl)c(O)cc2[C@H]2c3cccc(CNC4CC4)c3CC[C@@H]21` [5a38] gave a pKi greater than 8.30. `CN1CCc2cc(Cl)c(O)cc2C(c2ccc(CN(C3CCC3)S(C)(=O)=O)cc2)C1` (stereo not drawn) [7c16] was tested, and the pKi was greater than 8.30. `CN1CCc2cc(Cl)c(O)cc2C2c3cccc(C(=O)NCc4ccncc4)c3CCC21` (stereo not drawn) [13a19] was tested, and the pKi was greater than 8.00. `CN1CCc2cc(Cl)c(O)cc2C(c2ccc(NS(=O)(=O)c3ccccc3)cc2)C1` (stereo not drawn) [35a2] was tested, and the pKi was greater than 8.00. In the case of `CN1CCc2cc(Cl)c(O)cc2[C@H]2c3cccc(CNCc4ccccc4)c3CC[C@@H]21` [5a1], the pKi was greater than 8.30. For `CCOC(=O)Nc1ccc2c(c1)CC[C@H]1[C@H]2c2cc(O)c(Cl)cc2CCN1C` [24a2], the pKi was greater than 8.30. `CN1CCN(C(=O)c2cccc3c2CCC2C3c3cc(O)c(Cl)cc3CCN2C)CC1` (stereo not drawn) [13a6] showed a pKi of 7.30 to 8.00. `CN1CCc2cc(Cl)c(O)cc2C(c2ccc(NS(C)(=O)=O)cc2)C1` (stereo not drawn) [35a1] was tested, and the pKi was greater than 8.30. In the case of `CN1CCc2cc(Cl)c(O)cc2[C@H]2c3cccc(C#N)c3CC[C@@H]21` [27a], the pKi was greater than 8.00. In the case of `CN1CCc2cc(Cl)c(O)cc2C(c2ccc(CN(C)S(=O)(=O)c3ccccc3)cc2)C1` (stereo not drawn) [7c18], the pKi was greater than 8.30. Work on `CN1CCc2cc(Cl)c(O)cc2C2c3cccc(C(=O)NCc4cccnc4)c3CCC21` (stereo not drawn) [13a16] yielded a pKi greater than 8.00.

Same assay, conditions: membranes of Ltk- cells expressing human D1; 1 nM [3H] compound of formula III; 1 hour at room temperature; read-out: Ki (D1)
`CN1CCc2cc(Cl)c(O)cc2[C@H]2c3ccc(NS(C)(=O)=O)cc3CC[C@@H]21` [19b1] was tested, and the pKi was 9.35.

What follows are compounds tested on human D1 receptors in the same assay as above. Conditions: Ki for D2 receptor divided by Ki for D1 receptor.
Protocol: as §1, §2
With `CN1CCc2cc(Cl)c(O)cc2[C@H]2c3ccc(NS(C)(=O)=O)cc3CC[C@@H]21` [19b1] the “D2:D1 ratio (selectivity)” value was 6642.
